In patent US11931339B2, “Compositions and methods for treating tissue injury” (CASE WESTERN RESERVE UNIVERSITY, priority 2018, dated 2024):

Legend:
[1] = target: T1, PKM2-C423/424A in HEK cells (Homo sapiens, UniProt P14618, C423A/C424A); experiment: Activity of Myc-PKM2-C423/424A after NO (DETA-NO) treatment in HEK cells; format: cell-based; settings: 500 μM DETA-NO for 20 hr; FIG. 11b
T1 construct: host or cells: HEK cells (endogenous PKM2 depleted by siRNA against the 3' UTR)
Procedure: (§1) HEK cell transfection was described herein. siRNA-mediated protein depletion was used in HEK cells. Two custom PKM2 siRNAs that target the 3′ UTR of PKM2 were obtained from Dharmacon. siRNA oligonucleotides (60 pmol/10 cm plate) were transfected into HEK cells using Lipofectamine RNAiMAX (Invitrogen) according to the manufacturer's protocol. After 24 hours, 5 μg pCMV-control, pCMV-PKM2-WT or pCMV-PKM2-C423A/424A were co-transfected with siRNA oligonucleotides (60 pmol/10 cm plate) into HEK cells using Lipofectamine 2000. After 24 hrs, cells were treated with 500 μM DETA-NO for 20 hr. Cells were then collected for assay.
PKM activity was measured based on generation of pyruvate, which was oxidized by pyruvate oxidase to produce color (k=570 nm). To measure PKM2 activity in vitro, 250 ng recombinant PKM2-WT and PKM2-C423A/424A proteins were pre-incubated with substrate 2 μl fructose-1,6-bisphosphate (FBP)(250 μM) in 2 ml dialysis buffer [20 mM Tris-HCL (pH 7.9), 20% (v/v) glycerol, 0.1 M KCL, 0.2 mM EDTA], followed by dialysis to remove the free FBP in 2 L dialysis buffer. After 10 ng PKM2-FBP complex was treated with 200-300 μM SNO-CoA for 10 min at room temperature, the activity of PKM2 was measured. […] Extracts were clarified by centrifugation (20,000 g, 4° C., 20 min, ×2), and protein concentration was determined by bicinchoninic acid assay. […]

[2] = system: Myc-PKM2-WT and Myc-PKM2-C423/424A expressing HEK cells; experiment: PEP accumulation in PKM2-expressing HEK cells after NO treatment; format: cell-based; settings: HEK cells with endogenous PKM2 knocked down; 500 μM DETANO; FIG. 3h
Procedure: as §1
(§2) The amount of pyruvate was measured using Pyruvate Assay Kit (Sigma). Kidneys harvested from SCoR^+/+, SCoR^−/−, PKM2^+/+ or PKM2^−/− mice (sham operation or AKI) were mechanically homogenized in Pyruvate Assay Buffer (1 mg/5 μl buffer). After extracts were clarified by centrifugation (20,000 g, 4° C., 20 min, ×2), supernatant was used for assay. GHB in the serum of SCoR^+/+ and SCoR^−/− mice was measured following the GHB enzymatic assay kit from BUHLMANN. […] The amount of PEP, 6PG, ATP, ADP and serine were respectively measured using PEP Colorimetric/Fluorometric Assay Kit (Sigma), 6 phosphogluconate Assay kit (abeam), ATP Colorimetric/Fluorometric Assay Kit (Sigma), ADP Colorimetric/Fluorometric Assay Kit (Sigma) and DL-Serine Assay kit (Fluorometric) (Biovision).

[3] = system: Myc-PKM2-WT and Myc-PKM2-C423/424A expressing HEK cells; experiment: 6-phosphogluconate accumulation in PKM2-expressing HEK cells after NO treatment; format: cell-based; settings: DETANO 500 μM, FIG. 11d
Procedure: as §1, §2

[4] = system: Myc-PKM2-WT and Myc-PKM2-C423/424A HEK cells; experiment: ADP/ATP ratio in PKM2-expressing HEK cells under NO treatment; format: cell-based; settings: HEK cells under NO treatment (DETANO 500 μM); FIG. 12
Procedure: as §1, §2

recombinant PKM2 = target: T2, recombinant PKM2 (Homo sapiens, UniProt P14618); experiment: PKM activity of recombinant PKM2 after SNO-CoA treatment; format: biochemical; settings: PKM2-FBP complex, 200-300 μM SNO-CoA for 10 min at room temperature; FIG. 3d
T2 construct: 6xHis (C); made in house; host or cells: E. coli BL21-CodonPlus
Procedure: PKM activity was measured based on generation of pyruvate, which was oxidized by pyruvate oxidase to produce color (k=570 nm). To measure PKM2 activity in vitro, 250 ng recombinant PKM2-WT and PKM2-C423A/424A proteins were pre-incubated with substrate 2 μl fructose-1,6-bisphosphate (FBP)(250 μM) in 2 ml dialysis buffer [20 mM Tris-HCL (pH 7.9), 20% (v/v) glycerol, 0.1 M KCL, 0.2 mM EDTA], followed by dialysis to remove the free FBP in 2 L dialysis buffer. After 10 ng PKM2-FBP complex was treated with 200-300 μM SNO-CoA for 10 min at room temperature, the activity of PKM2 was measured. To measure PKM2 activity in kidney, kidneys were mechanically homogenized in lysis buffer [50 mM phosphate buffer, pH 7.0, 150 mM NaCl, 0.1 mM EDTA, 0.1 mM DTPA, 1 mM PMSF, and protease inhibitor mixture (Roche)]. Extracts were clarified by centrifugation (20,000 g, 4° C., 20 min, ×2), and protein concentration was determined by bicinchoninic acid assay. 10 μl (0.1 μg/μl) lysate was used to measure PKM2 activity. Assay of PKM2 activity was followed the protocol of Pyruvate Kinase Activity Colorimetric/Fluorometric Assay Kit from Biovison In.

recombinant PKM1 = recombinant PKM1 (Homo sapiens, UniProt P14618); experiment: Activity of recombinant PKM1 after SNO-CoA treatment; format: biochemical; settings: FIG. 8
recombinant PKLR = recombinant PKLR (Homo sapiens, UniProt P30613); experiment: Activity of recombinant PKLR after SNO-CoA treatment; format: biochemical; settings: FIG. 8
[5] = target: T3, recombinant PKM2-C423/424A (Homo sapiens, UniProt P14618, C423A/C424A); experiment: Activity of recombinant PKM2-C423/424A after SNO-CoA treatment; format: biochemical; settings: in vitro, 200-300 μM SNO-CoA for 10 min; FIG. 3f
T3 construct: 6xHis (C); made in house; host or cells: E. coli BL21-CodonPlus
Source text: The mammalian cell expression plasmid pCMV-PKM2 was obtained from Origene. Mammalian cell expression plasmid pcDNA-SCoR was constructed by PCR-cloning. pCMV-PKM2 cysteine mutants were generated by QuikChange II Site-Directed Mutagenesis Kit (Agilent). For purification of recombinant PKM2, cDNA encoding PKM2-WT or PKM2-C423A/424A were cloned into pET21b (Novagen) to introduce a C-terminal 6×His tag on the expressed protein. The recombinant PKM2 proteins were purified from BL21-CodonPlus Competent E. coli Cells (Agilent). Overnight E. coli cultures were sub-cultured into 1 L of LB medium at 5%. At OD600 of 0.5, cultures were induced with […] IPTG and grown for a further 4 hr at 28° C. Cultures were centrifuged at 4000 g for 10 min to harvest the cells. Cell pellets from 1 L cultures were lysed in 10 mL of 1×PBS buffer containing 1 mM PMSF and protease-inhibitor cocktail by sonication. After centrifugation at 14500 g for 20 min, the supernatant was collected. […]
PKM activity was measured based on generation of pyruvate, which was oxidized by pyruvate oxidase to produce color (k=570 nm). […] After 10 ng PKM2-FBP complex was treated with 200-300 μM SNO-CoA for 10 min at room temperature, the activity of PKM2 was measured. […] Extracts were clarified by centrifugation (20,000 g, 4° C., 20 min, ×2), and protein concentration was determined by bicinchoninic acid assay. […]

tetrameric PKM2-WT = target: T4, tetrameric PKM2-WT (Homo sapiens, UniProt P14618); experiment: PKM2 dimer and tetramer formation in vitro, PKM2-WT; format: biochemical; settings: purified proteins, 200-300 μM SNO-CoA for 10 min; FIG. 3g
T4 construct: 6xHis (C); made in house; host or cells: E. coli BL21-CodonPlus
Procedure: Assay of PKM2 dimer and tetramer in vitro follows previous descriptions. In brief, after 40 ng PKM2-FBP complex was treated with 200-300 μM SNO-CoA for 10 min at room temperature, 5 μl fresh glutaraldehyde (50%) was added to a reaction mixture containing 100 mM HEPES (pH 7.5) for 5 min at 37° C. The cross-linking reaction was terminated by addition of 5 μl 1M Tris-HCL (PH 8.0). Assay of PKM2 dimer and tetramer in situ was carried out as described previously. DSS (disuccinimidyl suberate; Thermo Scientific) (final 500 μM) was added to cells for 30 min at room temperature to cross-link proteins. Cells were lysed in RIPA Buffer and protein concentration was determined by bicinchoninic acid assay. Equal amounts of protein were separated by 4-15% Criterion™ Precast Midi Protein Gel and monomer, dimer and tetramer forms of PKM2 were detected with PKM2 antibody.

SCoR−/− mice = experiment: Ascorbate-supplemented chow in SCoR−/− mice: ascorbate levels and I/R-induced AKI; format: in vivo; settings: chow with 1% ascorbate for six weeks, FIGS. 7b-c
Procedure: AKI surgery was carried out as described herein. Mice of similar age (9-11 weeks) and body weight (male: 25-28 g; female: 22-25 g) were used for surgery. The mice were anesthetized with isoflurane (1-3%) in oxygen and then anesthesia was maintained with isoflurane (0.75-2.0%) and adjusted as needed. The fur in the surgical area was removed with clippers and the skin sterilized with 3 times alternating washes of betadine […] and alcohol. The mouse was placed on a thermostatic station during surgery. The skin and muscle were cut open along the back to expose both right and left kidneys. Gentle blunt dissection was performed through muscular layers to reveal the kidney and a Q-tip was used to mobilize and exteriorize the kidney. A 5-0 silk suture was used to clamp the pedicle to block the blood flow to the kidney to induce renal ischemia for 23 min in male mice or 50 min in female mice, then the sutures released to allow reperfusion. The identical steps were performed on the contra-lateral side. A silk suture was used to close the muscle layer of the incision followed by the closure of the skin wound with vicryl. […] Seram creatinine and BUN were determined after 24 hrs of reperfusion upon removal of the kidney (when larger volumes of blood can be collected). Seram creatinine and BUN were measured at University Hospital's Clinical Laboratories.

Chain of recombinant PKM1 (P14618 1-531 isoform P14618-2, species assumed): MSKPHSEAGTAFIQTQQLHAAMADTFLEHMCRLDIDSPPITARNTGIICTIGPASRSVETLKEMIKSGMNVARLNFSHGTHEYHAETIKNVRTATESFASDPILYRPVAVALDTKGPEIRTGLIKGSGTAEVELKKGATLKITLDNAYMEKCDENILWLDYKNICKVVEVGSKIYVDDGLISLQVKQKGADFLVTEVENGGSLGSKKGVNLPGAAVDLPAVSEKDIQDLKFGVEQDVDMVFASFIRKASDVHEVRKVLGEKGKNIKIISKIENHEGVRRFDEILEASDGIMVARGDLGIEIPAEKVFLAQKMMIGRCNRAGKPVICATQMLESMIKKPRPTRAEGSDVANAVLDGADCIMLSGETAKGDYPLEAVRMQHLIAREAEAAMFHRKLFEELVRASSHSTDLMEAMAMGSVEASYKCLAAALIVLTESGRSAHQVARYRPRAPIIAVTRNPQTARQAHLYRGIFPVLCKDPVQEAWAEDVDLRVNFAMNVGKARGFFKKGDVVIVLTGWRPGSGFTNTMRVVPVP
T4 sequence (P14618 whole entry, species assumed): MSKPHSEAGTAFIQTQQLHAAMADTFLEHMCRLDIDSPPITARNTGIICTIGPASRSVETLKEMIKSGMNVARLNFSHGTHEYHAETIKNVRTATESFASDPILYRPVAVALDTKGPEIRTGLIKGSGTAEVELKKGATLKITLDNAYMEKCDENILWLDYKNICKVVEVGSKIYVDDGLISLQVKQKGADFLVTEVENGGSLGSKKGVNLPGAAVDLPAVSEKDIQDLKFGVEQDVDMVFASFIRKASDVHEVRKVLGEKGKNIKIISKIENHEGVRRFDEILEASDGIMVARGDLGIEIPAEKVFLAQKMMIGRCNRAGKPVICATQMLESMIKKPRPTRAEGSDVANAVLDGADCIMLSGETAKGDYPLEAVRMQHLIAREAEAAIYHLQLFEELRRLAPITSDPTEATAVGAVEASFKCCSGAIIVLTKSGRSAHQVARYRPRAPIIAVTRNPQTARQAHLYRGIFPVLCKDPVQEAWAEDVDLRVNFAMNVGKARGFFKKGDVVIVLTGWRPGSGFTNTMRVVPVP
T2 sequence (P14618 whole entry, species assumed): as above
Chain of recombinant PKLR (P30613 whole entry, species assumed): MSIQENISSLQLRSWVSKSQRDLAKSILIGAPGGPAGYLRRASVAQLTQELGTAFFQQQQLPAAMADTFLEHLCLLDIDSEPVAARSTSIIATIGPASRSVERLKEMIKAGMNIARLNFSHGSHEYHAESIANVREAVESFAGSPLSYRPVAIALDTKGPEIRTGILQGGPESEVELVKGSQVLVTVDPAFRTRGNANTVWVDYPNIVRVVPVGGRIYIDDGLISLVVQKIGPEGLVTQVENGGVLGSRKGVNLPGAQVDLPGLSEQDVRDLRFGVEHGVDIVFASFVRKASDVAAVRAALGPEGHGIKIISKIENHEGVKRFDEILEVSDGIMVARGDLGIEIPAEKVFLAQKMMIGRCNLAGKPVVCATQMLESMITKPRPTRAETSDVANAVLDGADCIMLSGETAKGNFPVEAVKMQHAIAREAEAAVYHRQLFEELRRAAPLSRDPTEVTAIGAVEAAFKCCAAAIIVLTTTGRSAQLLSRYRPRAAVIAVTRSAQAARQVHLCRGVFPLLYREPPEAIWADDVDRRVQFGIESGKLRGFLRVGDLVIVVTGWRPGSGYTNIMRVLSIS
T3 sequence (P14618 2-531 C423A/C424A): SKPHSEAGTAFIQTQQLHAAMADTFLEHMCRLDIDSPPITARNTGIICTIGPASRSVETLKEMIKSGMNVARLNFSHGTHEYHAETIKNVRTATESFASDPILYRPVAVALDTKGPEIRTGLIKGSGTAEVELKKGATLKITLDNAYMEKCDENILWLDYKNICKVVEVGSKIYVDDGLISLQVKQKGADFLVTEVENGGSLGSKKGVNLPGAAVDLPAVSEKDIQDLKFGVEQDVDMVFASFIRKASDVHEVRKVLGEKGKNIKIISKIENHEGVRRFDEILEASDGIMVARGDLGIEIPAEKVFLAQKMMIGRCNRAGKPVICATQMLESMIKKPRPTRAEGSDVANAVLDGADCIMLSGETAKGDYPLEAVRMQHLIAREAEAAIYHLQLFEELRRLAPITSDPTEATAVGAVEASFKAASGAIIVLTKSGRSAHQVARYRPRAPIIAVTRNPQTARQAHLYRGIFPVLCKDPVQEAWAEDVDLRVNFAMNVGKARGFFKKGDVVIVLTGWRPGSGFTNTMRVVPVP
T1 sequence (P14618 2-531 C423A/C424A): as above

NCCN(CCN)/[N+]([O-])=N/O [DETA-NO]
activity of PKM2-C423/424A in HEK cells [1]: cannot be inhibited | accumulation of PEP in Myc-PKM2-C423/424A cells [2]: not Myc-PKM2-C423/424A cells | accumulation of PEP in Myc-PKM2-WT cells [2]: promoted the accumulation of PEP | accumulation of 6-phosphogluconate in Myc-PKM2-WT vs. Myc-PKM2-C423/424A cells [3]: promotes accumulation of 6-phosphogluconate | ADP/ATP ratio between Myc-PKM2-WT and Myc-PKM2-C423/424A cells [4]: no different

CC(C)(COP(=O)(O)OP(=O)(O)OC[C@H]1O[C@@H](n2cnc3c(N)ncnc32)[C@H](O)[C@@H]1OP(=O)(O)O)[C@@H](O)C(=O)NCCC(=O)NCCSN=O [SNO-CoA, S-nitroso-CoA]
activity of recombinant PKM2 after SNO-CoA treatment (recombinant PKM2): directly inhibited | activity of recombinant PKM1 after SNO-CoA treatment (recombinant PKM1): not other PK isoforms (PKM1 or PKLR), was directly inhibited | activity of recombinant PKLR after SNO-CoA treatment (recombinant PKLR): not other PK isoforms (PKM1 or PKLR), was directly inhibited | activity of PKM2-C423/424A after SNO-CoA treatment [5]: cannot be inhibited | formation of tetrameric PKM2-WT (tetrameric PKM2-WT): inhibited formation of tetrameric PKM2-WT

O=C1O[C@H]([C@@H](O)CO)C(O)=C1O [ascorbate, ascorbic acid]
AKI phenotype (serum creatinine and BUN) (SCoR−/− mice): no effect on the AKI phenotype
